Literature values in patent US9579280B2, “Controlled release delivery system for nasal applications and method of treatment” (MATTERN PHARMA AG, priority 2003, dated 2017).
Where two headings read alike, the source gives them in different places.

Experiments:
[1] = relative to water
[2] = molecular target: T1, sex hormone binding globulin (SHBG) (Homo sapiens, UniProt P04278)
T1 sequence (P04278 30-402): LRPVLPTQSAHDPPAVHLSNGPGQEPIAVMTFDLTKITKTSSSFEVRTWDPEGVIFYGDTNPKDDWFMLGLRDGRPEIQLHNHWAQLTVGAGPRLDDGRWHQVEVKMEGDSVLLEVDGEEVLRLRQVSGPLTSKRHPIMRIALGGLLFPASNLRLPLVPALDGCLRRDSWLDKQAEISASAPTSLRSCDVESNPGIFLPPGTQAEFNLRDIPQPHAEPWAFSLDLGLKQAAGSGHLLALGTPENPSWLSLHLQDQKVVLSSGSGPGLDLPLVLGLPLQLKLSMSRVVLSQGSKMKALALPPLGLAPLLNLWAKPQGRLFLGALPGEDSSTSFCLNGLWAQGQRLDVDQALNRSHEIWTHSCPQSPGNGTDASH

female sexual response = settings: for sexual arousal: sublingual or single vaginal dose
[3] = nasal

SMILES: C[C@]12CC[C@H]3[C@@H](CCC4=CC(=O)CC[C@@]43C)[C@@H]1CC[C@@H]2O [Testosterone, testosterone]
- solubility in vegetable oil [1]: somewhat more soluble in vegetable oil
- fraction of circulating plasma testosterone bound to SHBG [2]: Approximately 40%
- unbound (free) fraction ([2]; in men): 2%
- unbound (free) fraction ([2]; in women): up to 3%

SMILES: CCC(=O)O[C@H]1CC[C@H]2[C@@H]3CCC4=CC(=O)CC[C@]4(C)[C@H]3CC[C@]12C [testosterone propionate]
- time of testosterone and free testosterone peak (female sexual response; single vaginal dose): 5.5 h
- sexual arousal (female sexual response): does not trigger sexual arousal

SMILES: CN(C)CC(=O)O[C@H]1CC[C@H]2[C@@H]3CCC4=CC(=O)CC[C@]4(C)[C@H]3CC[C@]12C [testosterone 17β-N,N-dimethylglycinate]
- elimination half-life [3]: about fifty-five
- serum levels compared with intravenous administration [3]: equal to intravenous administration
- time to peak plasma concentration ([3]; 25 mg dose): twelve
- time to peak plasma concentration ([3]; 50 mg dose): twenty

SMILES: CCCCCCCCCCC(=O)O[C@H]1CC[C@H]2[C@@H]3CCC4=CC(=O)CC[C@]4(C)[C@H]3CC[C@]12C [testosterone undecanoate]
- sexual arousal (female sexual response): triggers sexual arousal
